# Assay results: US5827866A, “Peptidyl heterocycles useful in the treatment of thrombin related disorders” (Ortho Pharmaceutical Corporation, priority 1995, dated 1998)
# Assay: Ex vivo i.v. assay for duration of action (time to half plasma elimination)
# Settings: rat, from slope of Vo vs. time of plasma thrombin inhibition
# Procedure: An ex vivo assay was conducted to determine the duration of action of the compounds of Formula I. For this i.v. assay male rats (Long Evans, 350-500 g) were implanted with a teflon cannulae via the femoral artery while under anesthesia (pentobarbital i.p., 35 mg/kg). […] The animals were allowed to recover for at least 24 h after the surgical procedure.
# The test compound was dispersed in water and delivered to the animal (0.25 mL) via the femoral vein. […] A plasma sample was obtained by centrifuging the blood at 10,000 rpm for 5 min. This sample is analyzed for thrombin inhibition using the chromogenic assay, described below.
# Datum was collected over a 30 min period and the initial rate of substrate hydrolysis (V0 (mOD/min)) was calculated with an analysis program (Softmax, Molecular Devices).
# The time to half plasma elimination (t 1/2) was calculated from the slope of Vo vs. time, using the following equation:
row,Structure (SMILES),t1/2 [min]
1,CN[C@H](Cc1ccccc1)C(=O)N1CCC[C@H]1C(=O)N[C@@H](CCCNC(=N)N)C(=O)c1nc2ccc(O)cc2s1 [Compound 25],14
2,CNC(C(=O)N1CCC[C@H]1C(=O)N[C@@H](CCCNC(=N)N)C(=O)c1nc2ccccc2s1)c1ccccc1 (some centres unmarked) [Compound 34],26

# Assay: not given
# Settings: rat, in vivo, iv
row,t1/2 [min],Structure (SMILES)
1,16,CNC(Cc1ccccc1)C(=O)N1CCCC1C(=O)NC(CCCNC(=N)N)C(=O)c1nccs1 (centres unmarked) [Compound 4]
2,8,CN[C@H](Cc1ccccc1)C(=O)N1CCC[C@H]1C(=O)N[C@@H](CCCNC(=N)N)C(=O)c1nc2ccc3ccccc3c2s1 [Compound 52]
3,19,"CN[C@H](Cc1ccccc1)C(=O)N1CCC[C@H]1C(=O)N[C@@H](CCCNC(=N)N)C(=O)c1nc2ccccc2s1 [Compound 1, N-METHYL-D-PHENYLALANYL-N-[4-[(AMINOIMINOMETHYL)AMINO]-1S-[(BENXOTHIAZOL-2- YL)CARBONYL]BUTYL]-L-PROLINAMIDE]"
4,43,CN[C@H](Cc1ccccc1)C(=O)N1CCC[C@H]1C(=O)N[C@@H](CCCNC(=N)N)C(=O)c1nc2ccc(C(=O)OC)cc2s1 [Compound 12]
5,25,CN[C@H](Cc1ccccc1)C(=O)N1CCC[C@H]1C(=O)N[C@@H](CCCNC(=N)N)C(=O)c1nc2ccc(C(=O)O)cc2s1 [Compound 13]
6,5,CNC(Cc1ccccc1)C(=O)N1CCCC1C(=O)NC(CCCNC(=N)N)C(=O)c1nc2ccccc2[nH]1 (centres unmarked) [Compound 21]
7,42,"CN[C@@H](C(=O)N1CCC[C@H]1C(=O)N[C@@H](CCCNC(=N)N)C(=O)c1nc2ccccc2s1)C1CCCCC1 [Compound 37, N-METHYL-D-CYCLOHEXYLGLYCYL-N-[4-[(AMINOIMINOMETHYL)AMINO]-1S-[(BENXOTHIAZOL-2-YL)CARBONYL]BUTYL]-L-PROLINAMIDE]"
8,14,"CN[C@H](CC1CCCCC1)C(=O)N1CCC[C@H]1C(=O)N[C@@H](CCCNC(=N)N)C(=O)c1nc2ccccc2s1 [Compound 29, N-METHYL-D-CYCLOHEXYLALANYL-N-[4-[(AMINOIMINOMETHYL)AMINO]-1S-[(BENXOTHIAZOL-2-YL)CARBONYL]BUTYL]-L-PROLINAMIDE]"
9,6,CN[C@H](Cc1c(F)c(F)c(F)c(F)c1F)C(=O)N1CCC[C@H]1C(=O)N[C@@H](CCCNC(=N)N)C(=O)c1nc2ccccc2s1 [Compound 30]
10,19,"CN[C@H](Cc1ccc(F)cc1)C(=O)N1CCC[C@H]1C(=O)N[C@@H](CCCNC(=N)N)C(=O)c1nc2ccccc2s1 [Compound 32, N-METHYL-D-(4-FLUOROPHENYL)ALANYL-N-[4-[(AMINOIMINOMETHYL)AMINO)-1S-[(BENXOTHIAZOL-2-YL)CARBONYL]BUTYL]-L-PROLINAMIDE]"
11,14,CCOC(=O)c1csc(C(=O)[C@H](CCCNC(=N)N)NC(=O)[C@@H]2CCCN2C(=O)[C@@H](Cc2ccccc2)NC)n1 [Compound 19]
12,17,CN[C@H](Cc1ccccc1)C(=O)N1CCC[C@H]1C(=O)N[C@@H](CCCNC(=N)N)C(=O)c1nc2c(s1)CCCC2 [Compound 51]
13,8,CN[C@H](Cc1ccccc1)C(=O)N1CCC[C@H]1C(=O)N[C@@H](CCCNC(=N)N)C(=O)c1nc2ccc(F)cc2s1 [Compound 17]
14,16,CN[C@H](Cc1ccccc1)C(=O)N1CCC[C@H]1C(=O)N[C@@H](CCCNC(=N)N)C(=O)c1nc2ccc(CO)cc2s1 [Compound 15]
15,18,"CNC(C(=O)N1CCCC1C(=O)NC(CCCNC(=N)N)C(=O)c1nc2ccccc2s1)c1ccccc1 [Compound 33, N-METHYL-D-PHENYLGLYCYL-N-[4-[(AMINOIMINOMETHYL)AMINO]-1S-[(BENXOTHIAZOL-2- YL)CARBONYL]BUTYL]-L-PROLINAMIDE]"
16,11,CC(=O)N[C@H](Cc1ccccc1)C(=O)N1CCC[C@H]1C(=O)N[C@@H](CCCNC(=N)N)C(=O)c1nc2ccccc2s1.O=C(O)C(F)(F)F [Compound 35]
17,15,CN[C@H](Cc1ccccc1)C(=O)N1CCC[C@H]1C(=O)N[C@@H](CCCNC(=N)N)C(=O)c1nc(C(=O)O)cs1 [Compound 54]

# Assay: Ex vivo bioavailability assay (i.v. and p.o.)
# Parameters: species or system male rats
# Settings: rat, p.o. vs i.v.; drug in plasma extrapolated from thrombin inhibition
# Procedure: Bioavailability was determined by an ex vivo assay which incorporated hydrolysis rates from drug administered both i.v. and p.o. In this assay male rats were prepared as described above with a teflon tube implanted in their femoral artery.
# A standard curve was generated by adding of drug or vehicle (100 μL) to whole blood (900 μL) followed by incubating (5 min) and centrifuging to obtain plasma. The percentage of thrombin inhibition was calculated by comparing the V0 of the vehicle to that of the drug treated samples. Datum from several runs were normalized with a statistical package (SAS) to generate a standard curve.
# The percentage of thrombin inhibition in the treated animals was calculated by comparing the V0 prior to treatment with the V0 obtained from samples collected after treatment. The percent inhibition was applied to the standard curve (generated above) using the statistical package (SAS) and the quantity of drug in the sample was extrapolated.
# Bioavailability (Bioavail.) was calculated from the plots of the extrapolated drug in sample vs. time for both i.v. and p.o. administration using the following equation:
# %Bioavail. =([…])×(area
# under p.o. curve/area under curve i.v.)
row,"Bloavail, [%]",Structure (SMILES)
1,1.2,"CN[C@H](Cc1ccccc1)C(=O)N1CCC[C@H]1C(=O)N[C@@H](CCCNC(=N)N)C(=O)c1nc2ccccc2s1 [Compound 1, N-METHYL-D-PHENYLALANYL-N-[4-[(AMINOIMINOMETHYL)AMINO]-1S-[(BENXOTHIAZOL-2- YL)CARBONYL]BUTYL]-L-PROLINAMIDE]"
